Assay [1] deals with T1, GRP receptors on Swiss 3T3 cells (Mus musculus, UniProt P21729).
T1 construct: endogenous in cells; host or cells: Swiss 3T3 mouse fibroblasts (whole cells)
Kind of assay: Competitive cell binding vs 125I-Tyr4-BBN, Swiss 3T3 cells. As to the method:
The binding affinities of the synthetic BBN derivatives were assessed for GRP receptors on Swiss 3T3 cells and, in some cases, on a variety of human cancer cell lines, that express GRP receptors. […] The cell binding assay methods used to measure the IC50's is standard and used techniques previously reported [Jensen et al., 1993; Cai et al., 1994; Cai et al., 1992]. The methods used for determining IC50's for all GRP receptor binding compounds on all cell lines was similar. The specific method used to measure IC50's on Swiss 3T3 cells is briefly described as follows:
(§1) Swiss 3T3 mouse fibroblasts are grown to confluence in 48 well microtiter plates. […] The growth media was removed, the cells were washed twice with incubation media, and incubation media was returned to the cells. ^125I-Tyr4-BBN (0.01 uCi) was added to each well in the presence of increasing concentrations of the appropriate competitive peptide. Typical concentrations of displacing peptide ranged from 10-12 to 10-5 moles of displacing ligand per well. The cells were incubated at 37° C. for forty minutes in a 95% […]/5% CO2 humidified environment. At forty minutes post initiation of the incubation, the medium was discarded, and the cells were washed twice with cold incubation media. The cells were harvested from the wells following incubation in a trypsin/EDTA solution for five minutes at 37° C. Subsequently, the radioactivity, per well, was determined and the maximum % total uptake of the radiolabeled peptide was determined and normalized to 100%.
The binding affinities of the synthetic BBN derivatives were assessed for GRP receptors on Swiss 3T3 cells, PC-3 cells and CF PAC-1 cells. The IC50's of each of derivative were determined relative to (i.e., in competition with) ^125I-Tyr^4-BBN. The cell binding assay methods used to measure the IC50's is standard and was used by techniques previously reported [Jensen et al., 1993; Cai et al., 1992; Cai et al., 1994]. The methods used for determining IC50's with all BBN analogue binding to GRP receptors present on all three cell lines were similar. The specific method used to measure IC50's on Swiss 3T3 cells, is briefly described as follows:
as §1, with “microliter” for “microtiter”, “^125I-Tyr^4-BBN” for “^125I-Tyr4-BBN”, “μCi)” for “uCi)”, “10^−12” for “10-12”, “10^−5” for “10-5”, “100%. A similar procedure was used in performing cell binding assays with both the PC-3 and CFa-PAC-1 human cancer cell lines.” for “100%.”

In assay [2] the test system is PC-3 cells. In words: Internalization and efflux of In-DOTA-8-Aoc-BBN in PC-3 cells. In kind it is cell-based, human. As to the method: Internalization and efflux studies. […] The percent of cell-associated activity as a function of time (in the incubating medium at 37° C.) was determined. The percentage radioactivity trapped in the cells was determined after removing activity bound to the surface of the cells by washing with a pH-2.5 (0.2M acetic acid and 0.5M NaCl) buffer 1, 2, 3 and 4 hours afterwards.

Assay [3] has as its target T2, GRP receptors on PC-3 cells (Homo sapiens, UniProt P30550).
T2 construct: two different human cancer cell lines that express GRP receptors (i.e., CF-PAC1 and PC-3 cell lines); host or cells: PC-3 human prostate cancer cells (whole cells)
In words: Competitive cell binding vs 125I-Tyr4-BBN, PC-3 cells.

For assay [4], the target named is T3, GRP receptors on CF PAC-1 cells (Homo sapiens, UniProt P30550).
T3 construct: two different human cancer cell lines that express GRP receptors (i.e., CF-PAC1 and PC-3 cell lines); endogenous in cells; host or cells: CFPAC-1 human pancreatic cancer cells (whole cells)
T3 sequence (P30550 whole entry): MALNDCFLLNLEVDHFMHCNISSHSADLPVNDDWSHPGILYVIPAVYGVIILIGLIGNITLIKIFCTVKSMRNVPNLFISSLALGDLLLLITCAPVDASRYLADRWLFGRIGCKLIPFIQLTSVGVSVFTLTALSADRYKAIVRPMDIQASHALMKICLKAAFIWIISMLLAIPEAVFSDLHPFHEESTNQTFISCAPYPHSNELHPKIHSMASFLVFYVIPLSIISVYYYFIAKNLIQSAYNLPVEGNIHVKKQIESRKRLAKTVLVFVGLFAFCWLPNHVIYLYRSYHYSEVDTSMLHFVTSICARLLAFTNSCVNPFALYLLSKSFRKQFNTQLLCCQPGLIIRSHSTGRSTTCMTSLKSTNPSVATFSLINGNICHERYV
Kind of assay: Competitive cell binding vs 125I-Tyr4-BBN, CF PAC-1 cells.

This passage reports IC50, internalization and retention within cells results from patent US20060067886A1, “Gastrin receptor-avid peptide conjugates” (priority 1997, published 2006).

Like-named read-outs stand apart in the source and are kept apart here.

T2 sequence (P30550 whole entry): as above
T1 sequence (P21729 whole entry): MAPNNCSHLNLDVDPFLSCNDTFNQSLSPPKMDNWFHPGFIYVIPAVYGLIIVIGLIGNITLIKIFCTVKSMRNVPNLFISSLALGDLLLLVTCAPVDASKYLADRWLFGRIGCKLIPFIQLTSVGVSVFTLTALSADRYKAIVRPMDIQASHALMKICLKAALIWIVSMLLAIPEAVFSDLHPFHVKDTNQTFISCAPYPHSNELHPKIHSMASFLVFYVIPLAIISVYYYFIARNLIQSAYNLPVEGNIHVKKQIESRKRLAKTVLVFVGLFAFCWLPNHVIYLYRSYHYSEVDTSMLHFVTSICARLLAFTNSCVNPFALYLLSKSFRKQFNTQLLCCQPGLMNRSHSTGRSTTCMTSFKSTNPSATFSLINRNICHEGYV

As usually defined, the IC50 is the midpoint of a concentration-inhibition curve. Turning to `CSCC[C@H](NC(=O)[C@H](CC(C)C)NC(=O)[C@H](Cc1c[nH]cn1)NC(=O)CNC(=O)[C@@H](NC(=O)[C@H](C)NC(=O)[C@H](Cc1c[nH]c2ccccc12)NC(=O)[C@H](CCC(N)=O)NC(=O)CCNC(=O)COC1CSCCCSCCCSCCCSC1)C(C)C)C(N)=O` [BBN-46], the IC50 in assay [1] came to 2.34 ± 0.53 nM.
For the molecule `CSCC[C@H](NC(=O)[C@H](CC(C)C)NC(=O)[C@H](Cc1c[nH]cn1)NC(=O)CNC(=O)[C@@H](NC(=O)[C@H](C)NC(=O)[C@H](Cc1c[nH]c2ccccc12)NC(=O)[C@H](CCC(N)=O)NC(=O)CCCCCCCNC(=O)CN1CCN(CC(=O)O)CCN(CC(=O)O)CCN(CC(=O)O)CC1)C(C)C)C(N)=O` [In-DOTA-8-Aoc-BBN[7-14]NH2], in assay [2], the internalization entry was “rapid receptor mediated endocytosis” and the retention within cells entry was “remained retained within the cells for a prolonged time period”.
As to `CSCC[C@H](NC(=O)[C@H](CC(C)C)NC(=O)[C@H](Cc1c[nH]cn1)NC(=O)CNC(=O)[C@@H](NC(=O)[C@H](C)NC(=O)[C@H](Cc1c[nH]c2ccccc12)NC(=O)[C@H](CCC(N)=O)NC(=O)CCNC(=O)COC1CSCCCSCCCSCCCSC1)C(C)C)C(N)=O` [RhCl2BBN-46], the IC50 in assay [1] came out at 3.38 ± 0.69 nM.
`CSCC[C@H](NC(=O)[C@H](CC(C)C)NC(=O)[C@H](Cc1c[nH]cn1)NC(=O)CNC(=O)[C@@H](NC(=O)[C@H](C)NC(=O)[C@H](Cc1c[nH]c2ccccc12)NC(=O)[C@H](CCC(N)=O)NC(=O)CCCCNC(=O)COC1CSCCCSCCCSCCCSC1)C(C)C)C(N)=O` [RhCl2BBN-37]: the IC50 in assay [1] was 4.76 ± 0.79 nM; in assay [3] (PC-3 cells, read-out: IC50) it was about 7 nM; in assay [3] (Prostate CA, PC-3, read-out: IC50 (Mean Value)) it was 7 nM; in assay [4] it was about 7 nM.
The molecule `CSCC[C@H](NC(=O)[C@H](CC(C)C)NC(=O)[C@H](Cc1c[nH]cn1)NC(=O)CNC(=O)[C@@H](NC(=O)[C@H](C)NC(=O)[C@H](Cc1c[nH]c2ccccc12)NC(=O)[C@H](CCC(N)=O)NC(=O)CCCCCCCNC(=O)COC1CSCCCSCCCSCCCSC1)C(C)C)C(N)=O` [BBN-47] yielded a 50% inhibitory concentration (IC50) in assay [1] of 4.19 ± 0.91 nM.
With `CSCC[C@H](NC(=O)[C@H](CC(C)C)NC(=O)[C@H](Cc1c[nH]cn1)NC(=O)CNC(=O)[C@@H](NC(=O)[C@H](C)NC(=O)[C@H](Cc1c[nH]c2ccccc12)NC(=O)[C@H](CCC(N)=O)NC(=O)CNC(=O)CNC(=O)COC1CSCCCSCCCSCCCSC1)C(C)C)C(N)=O` [BBN-98], the half-inhibitory concentration (IC50) in assay [1] was in the range of 1 to 6 nM; in assay [3] (PC-3 cells, read-out: IC50) it was 1 to 6 nM; in assay [4], 1 to 6 nM.
For `CSCC[C@H](NC(=O)[C@H](CC(C)C)NC(=O)[C@H](Cc1c[nH]cn1)NC(=O)CNC(=O)[C@@H](NC(=O)[C@H](C)NC(=O)[C@H](Cc1c[nH]c2ccccc12)NC(=O)[C@H](CCC(N)=O)NC(=O)CCCCNC(=O)COC1CSCCCSCCCSCCCSC1)C(C)C)C(N)=O` [BBN-37], in assay [1], the half-maximal inhibitory concentration (IC50) worked out at 1.79 ± 0.09 nM.
As to `CSCC[C@H](NC(=O)[C@H](CC(C)C)NC(=O)[C@H](Cc1c[nH]cn1)NC(=O)CNC(=O)[C@@H](NC(=O)[C@H](C)NC(=O)[C@H](Cc1c[nH]c2ccccc12)NC(=O)[C@H](CCC(N)=O)NC(=O)CNC(=O)COC1CSCCCSCCCSCCCSC1)C(C)C)C(N)=O` [BBN-99], the IC50 in assay [1] is 1 to 6 nM; in assay [3] (PC-3 cells, read-out: IC50) it was 1 to 6 nM; in assay [4], 1 to 6 nM.
